PubChem BioAssay (NCI)
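How tested: cells in 96-well plates exposed to compound for 48 hours at five concentrations. TGI is the concentration that stops growth completely.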

Key:
Test in all cases: DTP human tumour cell line panel, 48 h
[1] = system: SNB-75 CNS
[2] = system: UACC-257 melanoma
[3] = system: MDA-N
[4] = system: HT29 colon
[5] = system: SF-295 CNS
[6] = system: MDA-MB-435
[7] = system: BT-549 breast
[8] = system: OVCAR-3 ovarian
[9] = system: NCI-H23 lung
[10] = system: UACC-62 melanoma
[11] = system: RPMI-8226 leukemia
[12] = system: SK-MEL-5 melanoma
[13] = system: PC-3 prostate
[14] = system: SR leukemia
[15] = system: K-562 leukemia
[16] = system: T-47D breast
[17] = system: A498 renal
[18] = system: HOP-62 NSCLC
[19] = system: MDA-MB-231 breast
[20] = system: OVCAR-5 ovarian
[21] = system: HS 578T breast
[22] = system: SNB-19 CNS
[23] = system: IGROV1 ovarian
[24] = system: NCI-H226 lung
[25] = system: MALME-3M melanoma
[26] = system: EKVX NSCLC
[27] = system: HCT-15 colon
[28] = system: SK-MEL-2 melanoma
[29] = system: DU-145 prostate
[30] = system: SN12C renal
[31] = system: M14 melanoma
[32] = system: NCI-H522 lung
[33] = system: TK-10 renal
[34] = system: UO-31 renal
[35] = system: OVCAR-8 ovarian
[36] = system: HCT-116 colon
[37] = system: OVCAR-4 ovarian
[38] = system: NCI/ADR-RES ovarian
[39] = system: KM12 colon
[40] = system: 786-0 renal
[41] = system: HOP-92 NSCLC
[42] = system: LOX IMVI melanoma
[43] = system: ACHN renal
[44] = system: SK-OV-3 ovarian
[45] = system: CAKI-1 renal
[46] = system: SF-268 CNS
[47] = system: COLO 205 colon
[48] = system: HCC-2998 colon
[49] = system: SW-620 colon
[50] = system: SK-MEL-28 melanoma
[51] = system: CCRF-CEM leukemia
[52] = system: MCF7 breast
[53] = system: SF-539 CNS
[54] = system: U251 CNS
[55] = system: NCI-H460 lung
[56] = system: MOLT-4 leukemia
[57] = system: RXF 393 renal
[58] = system: HL-60(TB) leukemia
[59] = system: A549 NSCLC

Work on Cc1ccc(S(=O)(=O)n2cc(/C=C/C#N)c(-c3cn(S(=O)(=O)c4ccc(C)cc4)cc3-c3cn(S(=O)(=O)c4ccc(C)cc4)cc3/C=C/C#N)c2)cc1 yielded a TGI [1] of over 100 µM, a TGI [2] of over 100 µM and a TGI [3] of over 100 µM. For the same compound, the TGI [4] was over 100 µM, the TGI [5] was over 100 µM and the TGI [6] was over 100 µM. The TGI [7] was over 100 µM, the TGI [8] was over 100 µM and the TGI [9] was over 100 µM. The TGI [10] was over 100 µM, the TGI [11] was over 100 µM and the TGI [12] was over 100 µM. The TGI [13] was over 100 µM, the TGI [14] was over 100 µM and the TGI [15] was over 100 µM. For the same compound, the TGI [16] was over 100 µM, the TGI [17] was over 100 µM and the TGI [18] was over 100 µM. For the same compound, the TGI [19] was over 100 µM, the TGI [20] was over 100 µM and the TGI [21] was over 100 µM. It also gave a TGI [22] of over 100 µM, a TGI [23] of over 100 µM and a TGI [24] of over 100 µM. The TGI [25] was over 100 µM, the TGI [26] was over 100 µM and the TGI [27] was over 100 µM. The TGI [28] was over 100 µM, the TGI [29] was over 100 µM and the TGI [30] was over 100 µM. The TGI [31] was over 100 µM, the TGI [32] was over 100 µM and the TGI [33] was over 100 µM. It also gave a TGI [34] of over 100 µM, a TGI [35] of over 100 µM and a TGI [36] of over 100 µM. For the same compound, the TGI [37] was over 100 µM, the TGI [38] was over 100 µM and the TGI [39] was over 100 µM. For the same compound, the TGI [40] was over 100 µM, the TGI [41] was over 100 µM and the TGI [42] was over 100 µM. The TGI [43] was over 100 µM, the TGI [44] was over 100 µM and the TGI [45] was over 100 µM. The TGI [46] was over 100 µM and the TGI [47] was over 100 µM.
N=C(N)SCc1ccc2c(c1)S(=O)(=O)c1ccccc1O2 showed a TGI [1] of 28.7 µM, a TGI [2] of 35.2 µM and a TGI [48] of 56.8 µM. It also gave a TGI [3] of 77 µM, a TGI [4] of 33.8 µM and a TGI [5] of 56.8 µM. For the same compound, the TGI [6] was 34.3 µM, the TGI [8] was 40.5 µM and the TGI [9] was 43.4 µM. It also gave a TGI [10] of 34.9 µM, a TGI [11] of over 100 µM and a TGI [13] of 37.4 µM. For the same compound, the TGI [14] was over 100 µM, the TGI [15] was over 100 µM and the TGI [16] was 73.8 µM. It also gave a TGI [17] of 35.1 µM, a TGI [18] of 42.4 µM and a TGI [19] of over 100 µM. The TGI [20] was 47.3 µM, the TGI [21] was 78.7 µM and the TGI [49] was 53 µM. For the same compound, the TGI [22] was over 100 µM, the TGI [50] was 33.1 µM and the TGI [23] was 31.5 µM. It also gave a TGI [24] of 48.9 µM, a TGI [26] of 35.2 µM and a TGI [51] of over 100 µM. The TGI [52] was 34.7 µM, the TGI [27] was 87.9 µM and the TGI [53] was 55.7 µM. For the same compound, the TGI [28] was 34.5 µM, the TGI [29] was over 100 µM and the TGI [54] was 38.2 µM. For the same compound, the TGI [55] was 53.1 µM, the TGI [56] was over 100 µM and the TGI [30] was over 100 µM. The TGI [31] was 62.5 µM, the TGI [33] was 34.7 µM and the TGI [34] was 29.7 µM. For the same compound, the TGI [57] was 47.5 µM, the TGI [35] was over 100 µM and the TGI [36] was 63.1 µM. It also gave a TGI [37] of 66.9 µM, a TGI [38] of over 100 µM and a TGI [39] of 32.7 µM. It also gave a TGI [40] of over 100 µM, a TGI [41] of 42.8 µM and a TGI [58] of over 100 µM. It also gave a TGI [42] of 60.2 µM, a TGI [43] of 31.9 µM and a TGI [44] of 53.2 µM. It also gave a TGI [59] of 39.8 µM, a TGI [45] of 51.7 µM and a TGI [46] of 93.1 µM. The TGI [47] was over 100 µM.
CN1CCN(Cn2nc(COc3ccccc3Cl)n(/N=C/c3ccc(-c4ccc(Cl)cc4Cl)o3)c2=S)CC1 showed a TGI [2] of over 100 µM, a TGI [48] of 33.8 µM and a TGI [3] of 53.8 µM. It also gave a TGI [4] of 42.9 µM, a TGI [5] of 87.3 µM and a TGI [6] of 64.5 µM. It also gave a TGI [8] of 47.5 µM, a TGI [9] of 44.8 µM and a TGI [11] of 83.8 µM. It also gave a TGI [12] of 71.8 µM, a TGI [13] of 53.6 µM and a TGI [14] of 51.8 µM. The TGI [15] was 89.9 µM, the TGI [16] was 55 µM and the TGI [17] was 54.1 µM. For the same compound, the TGI [18] was 45.7 µM, the TGI [19] was 69.5 µM and the TGI [20] was over 100 µM. It also gave a TGI [21] of over 100 µM, a TGI [49] of 34.6 µM and a TGI [50] of over 100 µM. It also gave a TGI [23] of over 100 µM, a TGI [24] of over 100 µM and a TGI [26] of over 100 µM. For the same compound, the TGI [51] was over 100 µM, the TGI [52] was 53.3 µM and the TGI [27] was 74.3 µM. For the same compound, the TGI [53] was 62.6 µM, the TGI [28] was 45.4 µM and the TGI [29] was 38.3 µM. For the same compound, the TGI [54] was 34.6 µM, the TGI [55] was 51.6 µM and the TGI [56] was 62.1 µM. The TGI [31] was 81.7 µM, the TGI [32] was 56.1 µM and the TGI [33] was 62.4 µM. The TGI [34] was over 100 µM, the TGI [57] was 32 µM and the TGI [35] was 79.3 µM. It also gave a TGI [36] of 34.7 µM, a TGI [37] of 45.2 µM and a TGI [38] of 61.9 µM. For the same compound, the TGI [39] was 42.1 µM, the TGI [40] was 32.8 µM and the TGI [41] was 40.6 µM. The TGI [58] was 55.1 µM, the TGI [42] was over 100 µM and the TGI [44] was over 100 µM. The TGI [45] was 50.4 µM and the TGI [46] was over 100 µM.
O=C(CCC(=O)c1ccsc1)c1ccsc1 was tested, and the TGI [1] was over 100 µM, the TGI [2] was over 100 µM and the TGI [48] was over 100 µM. It also gave a TGI [3] of over 100 µM, a TGI [5] of over 100 µM and a TGI [6] of over 100 µM. It also gave a TGI [7] of over 100 µM, a TGI [8] of over 100 µM and a TGI [9] of over 100 µM. For the same compound, the TGI [10] was over 100 µM, the TGI [11] was over 100 µM and the TGI [12] was over 100 µM. The TGI [13] was over 100 µM, the TGI [14] was over 100 µM and the TGI [16] was over 100 µM. The TGI [17] was over 100 µM, the TGI [18] was over 100 µM and the TGI [19] was over 100 µM. For the same compound, the TGI [20] was over 100 µM, the TGI [21] was over 100 µM and the TGI [49] was over 100 µM. The TGI [22] was over 100 µM, the TGI [50] was over 100 µM and the TGI [23] was over 100 µM. It also gave a TGI [24] of over 100 µM, a TGI [25] of over 100 µM and a TGI [52] of over 100 µM. It also gave a TGI [27] of over 100 µM, a TGI [53] of over 100 µM and a TGI [28] of over 100 µM. The TGI [29] was over 100 µM, the TGI [54] was over 100 µM and the TGI [55] was over 100 µM. It also gave a TGI [56] of over 100 µM, a TGI [30] of over 100 µM and a TGI [31] of over 100 µM. For the same compound, the TGI [32] was over 100 µM, the TGI [33] was over 100 µM and the TGI [34] was over 100 µM. For the same compound, the TGI [57] was over 100 µM, the TGI [35] was over 100 µM and the TGI [36] was over 100 µM. It also gave a TGI [37] of over 100 µM, a TGI [38] of over 100 µM and a TGI [39] of over 100 µM. It also gave a TGI [40] of over 100 µM, a TGI [41] of over 100 µM and a TGI [58] of over 100 µM. The TGI [42] was over 100 µM, the TGI [43] was over 100 µM and the TGI [44] was over 100 µM. It also gave a TGI [59] of over 100 µM, a TGI [45] of over 100 µM and a TGI [46] of over 100 µM. The TGI [47] was over 100 µM.
